# Patent US11214594B2, “Antimicrobial peptide having synergistic antibacterial effect with antibiotics on multidrug resistant bacteria, and use thereof” (priority 2016, dated 2022)
# Where a SMILES comes first, the peptide text is derived from it.
# Key:
# [1] = test system: MDREC 1238; format: cell-based, Escherichia coli
# Procedure, shortened: (§1)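 Peptides were serially diluted twofold in Mueller-Hinton medium and combined 1:1 with bacterial suspensions prepared at 2×10^6 CFU. Readout was the minimal inhibitory concentration, i.e. the lowest concentration with no growth.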
# [2] = test system: S. aureus; assay: microbe, parasite or virus in culture; format: cell-based, Staphylococcus aureus
# Procedure, shortened: as §1
# [3] = test system: MDRST 8007; assay: Minimal inhibitory concentration (MIC), single agent; format: cell-based, Salmonella typhimurium; details: agent alone
# Procedure, shortened: as §1
# [4] = test system: P. aeruginosa; assay: microbe, parasite or virus in culture; format: cell-based, Pseudomonas aeruginosa
# Procedure, shortened: as §1
# [5] = test system: MRSA 3114; format: cell-based, Staphylococcus aureus; details: 3114
# Procedure, shortened: as §1
# [6] = test system: MRSA 3126; format: cell-based, Staphylococcus aureus; details: 3126
# Procedure, shortened: as §1
# [7] = test system: MDREC 1229; assay: MIC of antibiotic during combined treatment with antimicrobial peptide; format: cell-based, Escherichia coli
# Procedure, shortened: (§2)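 Strains in MH medium at 2×10^6 CFU/ml were mixed with peptide diluted stepwise (2:1) from its MIC, then antibiotic dilutions in MH medium were added to give the antibiotic MIC. The reversed set-up, peptide titrated against fixed antibiotic, gave the peptide MIC.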
# [8] = test system: S. epidermidis; assay: microbe, parasite or virus in culture; format: cell-based, Staphylococcus epidermidis
# Procedure, shortened: as §1
# [9] = test system: A. baumannii; assay: MIC of antibiotic during combined treatment with antimicrobial peptide; format: cell-based, Acinetobacter baumannii; details: for Antibiotic MIC, Erythromycin / Antibiotic MIC, Linezolid / Antibiotic MIC, Vancomycin: A. baumannii
# Procedure, shortened: (§3)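 Checkerboard-type MIC of peptide–antibiotic mixtures in MH medium: the antibiotic was serially diluted in MH medium and added to wells, then the reversed arrangement was also tested.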
# [10] = test system: MDRPA 2003; format: cell-based, Pseudomonas aeruginosa
# Procedure, shortened: as §1
# [11] = test system: MDRPA 2002; format: cell-based, Pseudomonas aeruginosa
# Procedure, shortened: as §1
# [12] = test system: B. subtilis; assay: microbe, parasite or virus in culture; format: cell-based, Bacillus subtilis
# Procedure, shortened: as §1
# [13] = test system: E. coli; assay: MIC of antibiotic during combined treatment with antimicrobial peptide; format: cell-based, Escherichia coli; details: for Antibiotic MIC, Erythromycin / Antibiotic MIC, Linezolid / Antibiotic MIC, Vancomycin: E. coli
# Procedure, shortened: as §3
# [14] = test system: MDRAB 12035; assay: as above; format: cell-based, Acinetobacter baumannii
# Procedure, shortened: as §2
# [15] = test system: E. coli; assay: microbe, parasite or virus in culture; format: cell-based, Escherichia coli; details: 16 h
# Procedure, shortened: as §1
# [16] = test system: MDREC 1229; assay: microbe, parasite or virus in culture; format: cell-based, Escherichia coli
# Procedure, shortened: as §1
# [17] = peptide treatment concentration 1 μg/ml
# [18] = peptide treatment concentration 2 μg/ml
# [19] = peptide treatment concentration 4 μg/ml
# [20] = peptide treatment concentration 6 μg/ml
# [21] = peptide treatment concentration 8 μg/ml
# [22] = peptide treatment concentration 16 μg/ml
# [23] = peptide treatment concentration 32 μg/ml
# [24] = peptide treatment concentration 64 μg/ml
# [25] = combined with peptide at 1 μg/ml
# [26] = combined with peptide at 2 μg/ml
# [27] = combined with peptide at 4 μg/ml
# [28] = combined with peptide at 6 μg/ml
# [29] = combined with peptide at 8 μg/ml
# [30] = combined with peptide at 16 μg/ml
# [31] = combined with peptide at 32 μg/ml
# [32] = combined with peptide at 64 μg/ml
smiles,measurement,setting,value
"CC[C@H](C)[C@H](NC(=O)[C@H](CCCCN)NC(=O)[C@H](Cc1c[nH]c2ccccc12)NC(=O)[C@@H](N)CCCNC(=N)N)C(=O)N[C@@H](Cc1ccccc1)C(=O)N[C@@H](CCCCN)C(=O)N[C@@H](CCCCN)C(=O)N[C@H](C(=O)N1CCC[C@H]1C(=O)N[C@@H](CCCCN)C(=O)N[C@@H](Cc1ccccc1)C(=O)N[C@@H](CC(C)C)C(=O)N[C@@H](Cc1c[nH]cn1)C(=O)N[C@@H](CCC(=O)O)C(=O)N[C@@H](C)C(=O)N[C@@H](CCCCN)C(=O)N[C@@H](CCCCN)C(=O)N[C@@H](Cc1ccccc1)C(N)=O)[C@@H](C)CC [PapMA-11, RWK IFK KIP KFL HEA KKF-NH2] (H-RWKIFKKIPKFLHEAKKF-NH2; N-terminus assumed)",Minimal inhibitory concentration MIC,[1],64 µg/mL
same,Minimal inhibitory concentration MIC,[2],>128 µg/mL
same,Minimal inhibitory concentration MIC,[3],64 µg/mL
same,Minimal inhibitory concentration MIC,[4],128 µg/mL
same,Minimal inhibitory concentration MIC,[5],>128 µg/mL
same,Minimal inhibitory concentration MIC,[6],>128 µg/mL
same,"Antibiotic MIC, Erythromycin",[7]; [17],128 µg/mL
same,"Antibiotic MIC, Linezolid",[7]; [17],>128 µg/mL
same,"Antibiotic MIC, Vancomycin",[7]; [17],>128 µg/mL
same,"Antibiotic MIC, Erythromycin",[7]; [18],64 µg/mL
same,"Antibiotic MIC, Linezolid",[7]; [18],>128 µg/mL
same,"Antibiotic MIC, Vancomycin",[7]; [18],>128 µg/mL
same,"Antibiotic MIC, Erythromycin",[7]; [19],16 µg/mL
same,"Antibiotic MIC, Linezolid",[7]; [19],128 µg/mL
same,"Antibiotic MIC, Vancomycin",[7]; [19],>128 µg/mL
same,"Antibiotic MIC, Erythromycin",[7]; [20],8 µg/mL
same,"Antibiotic MIC, Linezolid",[7]; [20],128 µg/mL
same,"Antibiotic MIC, Vancomycin",[7]; [20],>128 µg/mL
same,"Antibiotic MIC, Erythromycin",[7]; [21],4 µg/mL
same,"Antibiotic MIC, Linezolid",[7]; [21],32 µg/mL
same,"Antibiotic MIC, Vancomycin",[7]; [21],128 µg/mL
same,"Antibiotic MIC, Erythromycin",[7]; [22],1 µg/mL
same,"Antibiotic MIC, Linezolid",[7]; [22],16 µg/mL
same,"Antibiotic MIC, Vancomycin",[7]; [22],16 µg/mL
same,"Antibiotic MIC, Erythromycin",[7]; [23],0.5 µg/mL
same,"Antibiotic MIC, Linezolid",[7]; [23],8 µg/mL
same,"Antibiotic MIC, Vancomycin",[7]; [23],8 µg/mL
same,"Antibiotic MIC, Erythromycin",[7]; [24],0 µg/mL
same,"Antibiotic MIC, Linezolid",[7]; [24],0 µg/mL
same,"Antibiotic MIC, Vancomycin",[7]; [24],0 µg/mL
same,Minimal inhibitory concentration MIC,[8],>128 µg/mL
same,Synergistic effect of antibacterial activity with existing antibiotics compared with PapMA-1,[9]; A. baumannii and MDRAB 12035,level similar to that of PapMA-1 peptide
same,"Antibiotic MIC, Erythromycin",[9]; [25],32 µg/mL
same,"Antibiotic MIC, Linezolid",[9]; [25],128 µg/mL
same,"Antibiotic MIC, Vancomycin",[9]; [25],>128 µg/mL
same,"Antibiotic MIC, Erythromycin",[9]; [26],16 µg/mL
same,"Antibiotic MIC, Linezolid",[9]; [26],128 µg/mL
same,"Antibiotic MIC, Vancomycin",[9]; [26],128 µg/mL
same,"Antibiotic MIC, Erythromycin",[9]; [27],4 µg/mL
same,"Antibiotic MIC, Linezolid",[9]; [27],64 µg/mL
same,"Antibiotic MIC, Vancomycin",[9]; [27],32 µg/mL
same,"Antibiotic MIC, Erythromycin",[9]; [28],1 µg/mL
same,"Antibiotic MIC, Linezolid",[9]; [28],32 µg/mL
same,"Antibiotic MIC, Vancomycin",[9]; [28],16 µg/mL
same,"Antibiotic MIC, Erythromycin",[9]; [29],0.5 µg/mL
same,"Antibiotic MIC, Linezolid",[9]; [29],16 µg/mL
same,"Antibiotic MIC, Vancomycin",[9]; [29],8 µg/mL
same,"Antibiotic MIC, Erythromycin",[9]; [30],0.25 µg/mL
same,"Antibiotic MIC, Linezolid",[9]; [30],8 µg/mL
same,"Antibiotic MIC, Vancomycin",[9]; [30],4 µg/mL
same,"Antibiotic MIC, Erythromycin",[9]; [31],0.125 µg/mL
same,"Antibiotic MIC, Linezolid",[9]; [31],2 µg/mL
same,"Antibiotic MIC, Vancomycin",[9]; [31],1 µg/mL
same,"Antibiotic MIC, Erythromycin",[9]; [32],0 µg/mL
same,"Antibiotic MIC, Linezolid",[9]; [32],0 µg/mL
same,"Antibiotic MIC, Vancomycin",[9]; [32],0 µg/mL
same,Minimal inhibitory concentration MIC,[10],>128 µg/mL
same,Minimal inhibitory concentration MIC,[11],128 µg/mL
same,Minimal inhibitory concentration MIC,[12],>128 µg/mL
same,Synergistic effect of antibacterial activity with existing antibiotics compared with PapMA-1,[13]; E. coli and MDREC1229,level similar to that of the PapMA-1 peptide
same,"Antibiotic MIC, Erythromycin",[13]; erythromycin combined with peptide at 1 μg/ml,64 µg/mL
same,"Antibiotic MIC, Erythromycin",[13]; erythromycin combined with peptide at 2 μg/ml,64 µg/mL
same,"Antibiotic MIC, Erythromycin",[13]; erythromycin combined with peptide at 4 μg/ml,16 µg/mL
same,"Antibiotic MIC, Erythromycin",[13]; erythromycin combined with peptide at 6 μg/ml,4 µg/mL
same,"Antibiotic MIC, Erythromycin",[13]; erythromycin combined with peptide at 8 μg/ml,1 µg/mL
same,"Antibiotic MIC, Erythromycin",[13]; erythromycin combined with peptide at 16 μg/ml,0.25 µg/mL
same,"Antibiotic MIC, Erythromycin",[13]; erythromycin combined with peptide at 32 μg/ml,0.125 µg/mL
same,"Antibiotic MIC, Erythromycin",[13]; erythromycin combined with peptide at 64 μg/ml,0 µg/mL
same,"Antibiotic MIC, Linezolid",[13]; linezolid combined with peptide at 1 μg/ml,>128 µg/mL
same,"Antibiotic MIC, Linezolid",[13]; linezolid combined with peptide at 2 μg/ml,128 µg/mL
same,"Antibiotic MIC, Linezolid",[13]; linezolid combined with peptide at 4 μg/ml,128 µg/mL
same,"Antibiotic MIC, Linezolid",[13]; linezolid combined with peptide at 6 μg/ml,32 µg/mL
same,"Antibiotic MIC, Linezolid",[13]; linezolid combined with peptide at 8 μg/ml,32 µg/mL
same,"Antibiotic MIC, Linezolid",[13]; linezolid combined with peptide at 16 μg/ml,16 µg/mL
same,"Antibiotic MIC, Linezolid",[13]; linezolid combined with peptide at 32 μg/ml,8 µg/mL
same,"Antibiotic MIC, Linezolid",[13]; linezolid combined with peptide at 64 μg/ml,0 µg/mL
same,"Antibiotic MIC, Vancomycin",[13]; vancomycin combined with peptide at 1 μg/ml,>128 µg/mL
same,"Antibiotic MIC, Vancomycin",[13]; vancomycin combined with peptide at 2 μg/ml,>128 µg/mL
same,"Antibiotic MIC, Vancomycin",[13]; vancomycin combined with peptide at 4 μg/ml,>128 µg/mL
same,"Antibiotic MIC, Vancomycin",[13]; vancomycin combined with peptide at 6 μg/ml,32 µg/mL
same,"Antibiotic MIC, Vancomycin",[13]; vancomycin combined with peptide at 8 μg/ml,16 µg/mL
same,"Antibiotic MIC, Vancomycin",[13]; vancomycin combined with peptide at 16 μg/ml,8 µg/mL
same,"Antibiotic MIC, Vancomycin",[13]; vancomycin combined with peptide at 32 μg/ml,4 µg/mL
same,"Antibiotic MIC, Vancomycin",[13]; vancomycin combined with peptide at 64 μg/ml,0 µg/mL
same,Erythromycin MIC during combined treatment with peptide,[14]; [17],32 µg/mL
same,Linezolid MIC during combined treatment with peptide,[14]; [17],>128 µg/mL
same,Vancomycin MIC during combined treatment with peptide,[14]; [17],>128 µg/mL
same,Erythromycin MIC during combined treatment with peptide,[14]; [18],16 µg/mL
same,Linezolid MIC during combined treatment with peptide,[14]; [18],128 µg/mL
same,Vancomycin MIC during combined treatment with peptide,[14]; [18],128 µg/mL
same,Erythromycin MIC during combined treatment with peptide,[14]; [19],8 µg/mL
same,Linezolid MIC during combined treatment with peptide,[14]; [19],64 µg/mL
same,Vancomycin MIC during combined treatment with peptide,[14]; [19],64 µg/mL
same,Erythromycin MIC during combined treatment with peptide,[14]; [20],2 µg/mL
same,Linezolid MIC during combined treatment with peptide,[14]; [20],32 µg/mL
same,Vancomycin MIC during combined treatment with peptide,[14]; [20],32 µg/mL
same,Erythromycin MIC during combined treatment with peptide,[14]; [21],1 µg/mL
same,Linezolid MIC during combined treatment with peptide,[14]; [21],16 µg/mL
same,Vancomycin MIC during combined treatment with peptide,[14]; [21],32 µg/mL
same,Erythromycin MIC during combined treatment with peptide,[14]; [22],0.5 µg/mL
same,Linezolid MIC during combined treatment with peptide,[14]; [22],8 µg/mL
same,Vancomycin MIC during combined treatment with peptide,[14]; [22],16 µg/mL
same,Erythromycin MIC during combined treatment with peptide,[14]; [23],0.125 µg/mL
same,Linezolid MIC during combined treatment with peptide,[14]; [23],2 µg/mL
same,Vancomycin MIC during combined treatment with peptide,[14]; [23],4 µg/mL
same,Erythromycin MIC during combined treatment with peptide,[14]; [24],0 µg/mL
same,Linezolid MIC during combined treatment with peptide,[14]; [24],0 µg/mL
same,Vancomycin MIC during combined treatment with peptide,[14]; [24],0 µg/mL
same,Minimal inhibitory concentration MIC,[15],64 µg/mL
same,Minimal inhibitory concentration MIC,[16],64 µg/mL
same,"Peptide MIC, peptide alone",[16],64 µg/mL
